Values quoted from earlier work, collected in patent publication US20230191113A1, “METHOD AND APPARATUS FOR CANCER TREATMENT” (Minnesota Medical Physics LLC, priority 2020, published 2023).

Tests used:
[1] = tested on: cancer tumors; settings: cited from earlier work
[2] = target: T1, A3 receptors (Homo sapiens, UniProt P0DMS8); settings: allosteric enhancer added to A3AR agonist; cited from earlier work
T1 sequence (P0DMS8 1-318): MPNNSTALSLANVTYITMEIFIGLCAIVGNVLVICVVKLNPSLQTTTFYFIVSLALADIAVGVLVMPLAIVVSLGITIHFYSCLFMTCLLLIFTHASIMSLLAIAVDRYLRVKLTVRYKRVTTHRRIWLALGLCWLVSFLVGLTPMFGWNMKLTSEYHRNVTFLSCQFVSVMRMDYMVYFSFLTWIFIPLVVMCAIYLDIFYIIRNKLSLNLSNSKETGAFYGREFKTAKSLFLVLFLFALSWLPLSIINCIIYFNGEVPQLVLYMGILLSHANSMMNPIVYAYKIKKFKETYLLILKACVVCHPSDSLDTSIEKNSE

## CNC(=O)[C@H]1O[C@@H](n2cnc3c(NCc4cccc(I)c4)nc(Cl)nc32)[C@H](O)[C@@H]1O [CL-IB-MECA]
[1]; CL-IB-MECA plus one-dimensional EFS
  increase of the apoptotic rate by one-dimensional EFS: 0.4 factor
[1]; multiple studies, significant dose of A3AR agonist alone
  effect on growth of cancer tumors: slowed down the growth of cancer tumors

## Clc1ccc(Nc2nc3ccccc3c3nc(C4CCCCC4)[nH]c23)cc1Cl [LUF6000]
[2]
  increase of the maximum efficacy of A3 receptors agonists: 45%
